Laboratory results: ChEMBL document CHEMBL1177749, “Tetracyclic chromane derivatives from Rhododendron anthopogonoides” (J Nat Prod, 2010)

Test system: Mast cell
Test: Inhibition of compound 48/80-induced histamine release in Wister rat Peritoneal mast cells
Type: functional, cell-based

| IC50 | Compound |
| --- | --- |
| 250 µM | COc1ccc2c(c1)c(CC(=O)O)c(C)n2C(=O)c1ccc(Cl)cc1 [INDOMETHACIN] |
| 63 µM | C/C(=C\CC[C@@]1(C)C=Cc2c(cc(C)c(C(=O)O)c2O)O1)CC(=O)CC(C)C [ANTHOPOGOCHROMENE A] |

| Compound | IC50 |
| --- | --- |
| Cc1cc2c(c(O)c1C(=O)O)[C@H]1[C@@H]3[C@@](C)(CCC[C@]3(C)O2)[C@H]1C(=O)CC(C)C [ANTHOPOGOCHROMANE] | 114 µM |
